What follows are molecules tested against human GPR40 receptor (Homo sapiens, UniProt O14842) (assay: IP1 accumulation measurements using the IPOne assay system). Conditions: IP1 accumulation (IPOne HTRF), 1 hour stimulation; 1321N1 cells stably expressing human GPR40; read-out: EC50 values on GPR40 determined as described in (B).
Assay type: cell-based
Experimental: (B) IP1 accumulation measurements using the IPOne assay system—1321N1 cells stably expressing human GPR40 receptor (Euroscreen, Belgium) were seeded 24 h before the assay in black clear-bottom collagen-coated 384-well plates in culture medium containing 10% FCS, 1% Na-Pyruvate and 400 μg/mL G418. IP1 is assayed according to the Manufacturer's description (Cisbio Bioassays, France). In brief, the assay is started by substitution of the culture medium by stimulation buffer (Hepes 10 mM, CaCl2 1 mM, MgCl2 0.5 mM, KCl 4.2 mM, NaCl 146 mM and glucose 5.5 mM, pH 7.4) without LiCl. Cells are stimulated for 1 hour at 37°, 10% CO2 by addition of the compounds that were diluted in stimulation buffer containing LiCl yielding a final LiCl concentration of 50 mM. Assays are stopped by adding HTRF-conjugates (IP1-d2 and Anti-IP1 cryptate Tb) and lysis buffer, provided by the manufacturer. After an incubation time of 1 hour at room temperature plates are measured using an EnVision™, Perkin Elmer.

human GPR40 receptor, sequence (O14842 whole entry): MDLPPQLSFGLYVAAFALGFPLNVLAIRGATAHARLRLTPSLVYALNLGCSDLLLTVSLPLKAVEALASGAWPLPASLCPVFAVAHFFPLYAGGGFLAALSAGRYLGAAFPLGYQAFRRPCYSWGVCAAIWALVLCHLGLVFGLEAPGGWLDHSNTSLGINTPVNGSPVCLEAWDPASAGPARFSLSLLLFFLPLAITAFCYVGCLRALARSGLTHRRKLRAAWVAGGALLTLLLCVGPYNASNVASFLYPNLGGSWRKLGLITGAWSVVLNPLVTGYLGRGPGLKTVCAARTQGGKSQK

SMILES | EC50 [nM]
Cc1cccc(C)c1-c1ccc2c(c1)CC[C@H]2Oc1ccc2c(c1)OC[C@H]2CC(=O)O [Example 52, {(S)-6-[(R)-5-(2,6-Dimethyl-phenyl)-indan-1-yloxy]-2,3-dihydro-benzofuran-3-yl}-acetic acid] | 113
Cc1cccc(C)c1-c1ccc2c(c1)[C@@H](Oc1ccc3c(c1)OC[C@H]3CC(=O)O)CC2 [Example 53, {(S)-6-[(S)-6-(2,6-Dimethyl-phenyl)-indan-1-yloxy]-2,3-dihydro-benzofuran-3-yl}-acetic acid] | 211
CC(C)c1ccccc1-c1ccc2c(c1)CC[C@H]2Oc1ccc2c(c1)OC[C@H]2CC(=O)O [Example 54, {(S)-6-[(R)-5-(2-Isopropyl-phenyl)-indan-1-yloxy]-2,3-dihydro-benzofuran-3-yl}-acetic acid] | 258
O=C(O)C[C@@H]1COc2cc(O[C@H]3CCc4ccc(Br)cc43)ccc21 [Example 55, {(S)-6-[(S)-6-Bromo-indan-1-yloxy]-2,3-dihydro-benzofuran-3-yl}-acetic acid] | 2910
O=C(O)C[C@@H]1COc2cc(O[C@@H]3CCc4c(C5=CCCCC56CCOCC6)cccc43)ccc21 [Example 56, {(S)-6-[(R)-4-(3-Oxa-spiro[5.5]undec-7-en-7-yl)-indan-1-yloxy]-2,3-dihydro-benzofuran-3-yl}-acetic acid] | 124
Cn1ccnc1-c1cccc2c1CC[C@H]2Oc1ccc2c(c1)OC[C@H]2CC(=O)O [Example 57, {(S)-6-[(R)-4-(1-methyl-1H-imidazol-2-yl)-indan-1-yloxy]-2,3-dihydro-benzofuran-3-yl}-acetic acid] | 8900
Cc1cccnc1-c1cccc2c1CC[C@H]2Oc1ccc2c(c1)OC[C@H]2CC(=O)O [Example 58, {(S)-6-[(R)-4-(3-Methyl-pyridin-2-yl)-indan-1-yloxy]-2,3-dihydro-benzofuran-3-yl}-acetic acid] | 534
COc1cc(C)c(-c2cccc3c2CC[C@H]3Oc2ccc3c(c2)OC[C@H]3CC(=O)O)c(C)c1 [Example 59, {(S)-6-[(R)-4-(4-Methoxy-2,6-dimethyl-phenyl)-indan-1-yloxy]-2,3-dihydro-benzofuran-3-yl}-acetic acid] | 325
COc1ncc(C)c(-c2cccc3c2CC[C@H]3Oc2ccc3c(c2)OC[C@H]3CC(=O)O)c1C [Example 60, {(S)-6-[(R)-4-(2-Methoxy-3,5-dimethyl-pyridin-4-yl)-indan-1-yloxy]-2,3-dihydro-benzofuran-3-yl}-acetic acid] | 51
Cc1cn(C)c(=O)c(C)c1-c1cccc2c1CC[C@H]2Oc1ccc2c(c1)OC[C@H]2CC(=O)O [Example 61, {(S)-6-[(R)-4-(1,3,5-Trimethyl-2-oxo-1,2-dihydro-pyridin-4-yl)-indan-1-yloxy]-2,3-dihydro-benzofuran-3-yl}-acetic acid] | 155
Cc1ccccc1-c1cccc2c1CC[C@H]2Oc1ccc2c(c1)OC[C@H]2CC(=O)O [Example 62, {(S)-6-[(R)-4-o-Tolyl-indan-1-yloxy]-2,3-dihydro-benzofuran-3-yl}-acetic acid] | 52
Cc1cc(=O)n(C)c(C)c1-c1cccc2c1CC[C@H]2Oc1ccc2c(c1)OC[C@H]2CC(=O)O [Example 63, {(S)-6-[(R)-4-(1,2,4-Trimethyl-6-oxo-1,6-dihydro-pyridin-3-yl)-indan-1-yloxy]-2,3-dihydro-benzofuran-3-yl}-acetic acid] | 3150
COc1cc(C)c(-c2cccc3c2CC[C@H]3Oc2ccc3c(c2)OC[C@H]3CC(=O)O)c(C)n1 [Example 64, {(S)-6-[(R)-4-(6-Methoxy-2,4-dimethyl-pyridin-3-yl)-indan-1-yloxy]-2,3-dihydro-benzofuran-3-yl}-acetic acid] | 213
O=C(O)C[C@@H]1COc2cc(O[C@@H]3CCc4c3cccc4N3CCOCC3)ccc21 [Example 65, {(S)-6-[(R)-4-Morpholin-4-yl-indan-1-yloxy]-2,3-dihydro-benzofuran-3-yl}-acetic acid] | 1850
COc1cc(-c2cccc3c2CC[C@H]3Oc2ccc3c(c2)OC[C@H]3CC(=O)O)c(F)cn1 [Example 68, {(S)-6-[(R)-4-(5-Fluoro-2-methoxy-pyridin-4-yl)-indan-1-yloxy]-2,3-dihydro-benzofuran-3-yl}-acetic acid] | 359
O=C(O)C[C@@H]1COc2cc(O[C@@H]3CCc4c(-c5ccccc5C(F)(F)F)cccc43)ccc21 [Example 69, {(S)-6-[(R)-4-(2-Trifluoromethyl-phenyl)-indan-1-yloxy]-2,3-dihydro-benzofuran-3-yl}-acetic acid] | 88
CC1(C)CCCC=C1c1cccc2c1CC[C@H]2Oc1ccc2c(c1)OC[C@H]2CC(=O)O [Example 70, {(S)-6-[(R)-4-(6,6-Dimethyl-cyclohex-1-enyl)-indan-1-yloxy]-2,3-dihydro-benzofuran-3-yl}-acetic acid] | 8
COc1ccc(C)c(-c2cccc3c2CC[C@H]3Oc2ccc3c(c2)OC[C@H]3CC(=O)O)c1 [Example 71, {(S)-6-[(R)-4-(5-Methoxy-2-methyl-phenyl)-indan-1-yloxy]-2,3-dihydro-benzofuran-3-yl}-acetic acid] | 71
Cc1ccc(O)cc1-c1cccc2c1CC[C@H]2Oc1ccc2c(c1)OC[C@H]2CC(=O)O [Example 72, {(S)-6-[(R)-4-(5-Hydroxy-2-methyl-phenyl)-indan-1-yloxy]-2,3-dihydro-benzofuran-3-yl}-acetic acid] | 98
O=C(O)C[C@@H]1COc2cc(O[C@@H]3CCc4c(-c5cccnc5C(F)(F)F)cccc43)ccc21 [Example 73, {(S)-6-[(R)-4-(2-Trifluoromethyl-pyridin-3-yl)-indan-1-yloxy]-2,3-dihydro-benzofuran-3-yl}-acetic acid] | 2720
Cc1noc(C)c1-c1cccc2c1CC[C@H]2Oc1ccc2c(c1)OC[C@H]2CC(=O)O [Example 74, {(S)-6-[(R)-4-(3,5-Dimethyl-isoxazol-4-yl)-indan-1-yloxy]-2,3-dihydro-benzofuran-3-yl}-acetic acid] | 327
O=C(O)C[C@@H]1COc2cc(O[C@@H]3CCc4c(-c5nccc6ccccc56)cccc43)ccc21 [Example 77, {(S)-6-[(R)-4-Isoquinolin-1-yl-indan-1-yloxy]-2,3-dihydro-benzofuran-3-yl}-acetic acid] | 57
COC(C)(c1cccc2c1CC[C@H]2Oc1ccc2c(c1)OC[C@H]2CC(=O)O)C(C)(C)C (stereo partly drawn) [Example 78, {(S)-6-[(R)-4-(1-Methoxy-1,2,2-trimethyl-propyl)-indan-1-yloxy]-2,3-dihydro-benzofuran-3-yl}-acetic acid] | 76
COCC(F)(F)c1cccc2c1CC[C@H]2Oc1ccc2c(c1)OC[C@H]2CC(=O)O [Example 79, {(S)-6-[(R)-4-(1,1-Difluoro-2-methoxy-ethyl)-indan-1-yloxy]-2,3-dihydro-benzofuran-3-yl}-acetic acid] | 288
Cc1ccc2ccccc2c1-c1cccc2c1CC[C@H]2Oc1ccc2c(c1)OC[C@H]2CC(=O)O [Example 80, {(S)-6-[(R)-4-(2-Methyl-naphthalen-1-yl)-indan-1-yloxy]-2,3-dihydro-benzofuran-3-yl}-acetic acid] | 20
CC(O)(c1cccc2c1CC[C@H]2Oc1ccc2c(c1)OC[C@H]2CC(=O)O)C1CCOCC1 (stereo partly drawn) [Example 81, ((S)-6-{(R)-4-[1-Hydroxy-1-(tetrahydro-pyran-4-yl)-ethyl]-indan-1-yloxy}-2,3-dihydro-benzofuran-3-yl)-acetic acid] | 1540
